Results taken from ChEMBL document CHEMBL1154248, “Matrix metalloproteinase-2 inhibitors from Clinopodium chinense var. parviflorum” (J Nat Prod, 2009).

Biological target: 72 kDa type IV collagenase (Rattus norvegicus, UniProt P33436)
Experiment: Inhibition of gelatinolytic activity of MMP2 in rat lung homogenate after 40 mins by SDS-PAGE preincubated for 30 mins

72 kDa type IV collagenase, sequence (P33436 whole entry): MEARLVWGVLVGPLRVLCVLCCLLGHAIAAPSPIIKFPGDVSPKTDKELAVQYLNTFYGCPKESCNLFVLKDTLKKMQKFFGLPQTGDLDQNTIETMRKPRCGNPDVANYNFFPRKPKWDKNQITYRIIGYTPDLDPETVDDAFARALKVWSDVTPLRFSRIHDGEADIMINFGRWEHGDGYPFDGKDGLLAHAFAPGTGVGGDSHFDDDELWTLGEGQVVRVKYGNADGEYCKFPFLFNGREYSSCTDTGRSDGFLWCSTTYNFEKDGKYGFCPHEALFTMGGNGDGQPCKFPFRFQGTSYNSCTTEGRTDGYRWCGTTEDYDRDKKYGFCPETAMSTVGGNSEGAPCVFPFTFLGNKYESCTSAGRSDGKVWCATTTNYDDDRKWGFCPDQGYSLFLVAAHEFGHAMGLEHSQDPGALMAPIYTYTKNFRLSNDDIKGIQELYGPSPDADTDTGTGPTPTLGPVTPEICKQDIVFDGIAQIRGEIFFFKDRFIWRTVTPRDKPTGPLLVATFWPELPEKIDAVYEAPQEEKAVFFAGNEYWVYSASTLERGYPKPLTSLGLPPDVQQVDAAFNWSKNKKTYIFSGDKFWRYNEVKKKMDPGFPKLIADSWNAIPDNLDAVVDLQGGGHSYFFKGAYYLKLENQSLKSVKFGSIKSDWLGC

Row | IC50 [µM] | Compound
1 | > 100 | COc1cc(C[C@@H](OC(=O)/C=C/c2ccc(O)c3c2[C@H](C(=O)O)[C@@H](c2ccc(O)c(OC)c2)O3)C(=O)O)ccc1O [CLINOPODIC ACID H]
2 | > 100 | COc1cc(C[C@@H](OC(=O)/C=C/c2ccc3c(c2)O[C@@H](C(=O)O)[C@@H](c2ccc(O)c(O)c2)O3)C(=O)O)ccc1O [CLINOPODIC ACID F]
3 | > 100 | COc1cc(C[C@@H](OC(=O)/C=C/c2ccc(O)c(O)c2)C(=O)O)ccc1O [CLINOPODIC ACID B]
4 | > 100 | O=C(/C=C/c1ccc(O)cc1)O[C@H](Cc1ccc(O)c(O)c1)C(=O)O [CLINOPODIC ACID A]
5 | > 100 | COC(=O)[C@@H](Cc1ccc(O)c(O)c1)OC(=O)/C=C/c1ccc(O)c(O)c1 [METHYL ROSMARINATE]
6 | 27.2 | O=C(/C=C/c1ccc(O)c(O)c1)O[C@H](Cc1ccc(O)c(O)c1)C(=O)O [ROSMARINIC ACID]
7 | > 100 | O=C(/C=C/c1ccc2c(c1)O[C@@H](C(=O)O)[C@@H](c1ccc(O)c(O)c1)O2)O[C@H](Cc1ccc(O)c(O)c1)C(=O)O [CLINOPODIC ACID E]
8 | 3.26 | O=C(/C=C/c1ccc2c(c1)O[C@H](C(=O)O)[C@H](c1ccc(O)c(O)c1)O2)O[C@H](Cc1ccc(O)c(O)c1)C(=O)O [CLINOPODIC ACID C]
9 | 10.2 | O=C(/C=C/c1ccc(O)c2c1[C@H](C(=O)O)[C@@H](c1ccc(O)c(O)c1)O2)O[C@H](Cc1ccc(O)c(O)c1)C(=O)O [LITHOSPERMIC ACID]
